# Measurements taken from patent EP3623369A1, “NOVEL MORPHOLINYL AMINE COMPOUNDS FOR THE TREATMENT OF AUTOIMMUNE DISEASE” (F. Hoffmann-La Roche AG, priority 2018, dated 2020).
# Biological target: T1, hTLR7 (Homo sapiens, UniProt Q9NYK1)
# T1 sequence (Q9NYK1 27-1049): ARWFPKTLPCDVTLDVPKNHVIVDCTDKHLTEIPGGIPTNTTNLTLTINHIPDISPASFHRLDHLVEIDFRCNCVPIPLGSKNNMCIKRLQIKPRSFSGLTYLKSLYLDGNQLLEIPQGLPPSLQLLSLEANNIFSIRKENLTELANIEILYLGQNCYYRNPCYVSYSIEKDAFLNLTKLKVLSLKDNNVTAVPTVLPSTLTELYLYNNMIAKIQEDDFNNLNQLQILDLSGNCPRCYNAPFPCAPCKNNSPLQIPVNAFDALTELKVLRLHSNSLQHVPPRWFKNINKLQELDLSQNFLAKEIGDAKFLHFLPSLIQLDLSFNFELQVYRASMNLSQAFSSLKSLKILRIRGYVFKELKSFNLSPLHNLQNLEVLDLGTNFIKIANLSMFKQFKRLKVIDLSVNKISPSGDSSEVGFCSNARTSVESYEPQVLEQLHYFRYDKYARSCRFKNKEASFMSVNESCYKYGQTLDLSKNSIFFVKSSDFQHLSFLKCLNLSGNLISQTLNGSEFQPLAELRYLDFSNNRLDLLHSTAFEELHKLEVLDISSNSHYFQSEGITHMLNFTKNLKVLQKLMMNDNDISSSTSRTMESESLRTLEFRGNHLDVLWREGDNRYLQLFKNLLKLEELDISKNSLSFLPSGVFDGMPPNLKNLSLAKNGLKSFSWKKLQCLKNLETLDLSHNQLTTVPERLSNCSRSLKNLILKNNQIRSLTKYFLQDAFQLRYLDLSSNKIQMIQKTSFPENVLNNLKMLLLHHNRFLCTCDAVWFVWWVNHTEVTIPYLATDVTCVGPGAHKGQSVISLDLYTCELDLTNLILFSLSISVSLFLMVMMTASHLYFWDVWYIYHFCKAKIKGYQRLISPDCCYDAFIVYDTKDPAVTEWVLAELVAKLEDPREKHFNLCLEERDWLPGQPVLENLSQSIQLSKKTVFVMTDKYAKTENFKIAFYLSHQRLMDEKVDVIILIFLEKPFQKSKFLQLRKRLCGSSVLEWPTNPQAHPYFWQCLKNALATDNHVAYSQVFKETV
# Test: HEK293-Blue-hTLR-7 cells assay (SEAP reporter, R848 stimulation)
# Assay type: cell-based
# Settings: HEK293-Blue-hTLR7 cells, R848, 20 hrs; 0.003 is the lowest tested concentration; read-out: HEK/hTLR7 IC50
# Method: The following tests were carried out in order to determine the activity of the compounds of formula (I) or (Ia) in HEK293-Blue-hTLR-7/8/9 cells assay.
# HEK293-Blue-hTLR-7 cells assay:
# A stable HEK293-Blue-hTLR-7 cell line was purchased from InvivoGen (Cat.#: hkb-htlr7, San Diego, California, USA). These cells were originally designed for studying the stimulation of human TLR7 by monitoring the activation of NF-κB. A SEAP (secreted embryonic alkaline phosphatase) reporter gene was placed under the control of the IFN-β minimal promoter fused to five NF-κB and AP-1-binding sites. The SEAP was induced by activating NF-κB and AP-1 via stimulating HEK-Blue hTLR7 cells with TLR7 ligands. Therefore the reporter expression was declined by TLR7 antagonist under the stimulation of a ligand, such as R848 (Resiquimod), for incubation of 20 hrs. The cell culture supernatant SEAP reporter activity was determined using QUANTI-Blue™ kit (Cat.#: rep-qb1, Invivogen, San Diego, Ca, USA) at a wavelength of 640 nm, a detection medium that turns purple or blue in the presence of alkaline phosphatase.
# HEK293-Blue-hTLR7 cells were incubated at a density of 250,000∼450,000 cells/mL in a volume of 170 µL in a 96-well plate in Dulbecco's Modified Eagle's medium (DMEM) containing 4.5 g/L glucose, 50 U/mL penicillin, […], […], 2 mM L-glutamine, 10% (v/v) heat-inactivated fetal bovine serum with addition of 20 µL test compound in a serial dilution in the presence of final DMSO at 1% and 10 µL of 20uM R848 in above DMEM, perform incubation under 37 °C in a CO2 incubator for 20 hrs. Then 20 µL of the supernatant from each well was incubated with 180 µL Quanti-blue substrate solution at 37 °C for 2 hrs and the absorbance was read at 620∼655 nm using a spectrophotometer. The signalling pathway that TLR7 activation leads to downstream NF-κB activation has been widely accepted, and therefore similar reporter assay was modified for evaluating TLR7 antagonist.
row,SMILES,IC50 [nM]
1,"C[C@@H]1CN(c2ccc(C#N)c3ncccc23)C[C@H](CN2Cc3cc(N4CCN(C)CC4)cc(F)c3C2)O1 [Example 69, 5-[(2S,6R)-2-[[4-fluoro-6-(4-methylpiperazin-1-yl)isoindolin-2-yl]methyl]-6-methyl-morpholin-4-yl]quinoline-8-carbonitrile]",43
2,"C[C@@H]1CN(c2ccc3c(c2)CN(C[C@H]2CN(c4ccc(C#N)c5ncccc45)C[C@@H](C)O2)C3)C[C@H](C)N1 [Example 71, 5-[(2R,6S)-2-methyl-6-[[5-[(3R,5S)-3,5-dimethylpiperazin-1-yl]isoindolin-2-yl]methyl]morpholin-4-yl]quinoline-8-carbonitrile]",108
3,"C[C@@H]1CN(c2ccc(C#N)c3ncccc23)C[C@H](CN2Cc3ccc(N4CC5COCC(C4)N5)cc3C2)O1 [Example 72, 5-[(2R,6S)-2-methyl-6-[[5-(3-oxa-7,9-diazabicyclo[3.3.1]nonan-7-yl)isoindolin-2-yl]methyl]morpholin-4-yl]quinoline-8-carbonitrile]",45
4,"C[C@@H]1CN(c2ccc(C#N)c3ncccc23)C[C@H](CN2Cc3ccc(N4CCNCC4CO)cc3C2)O1 (stereo partly drawn) [Example 73, 5-[(2S,6R)-2-[[5-[2-(hydroxymethyl)piperazin-1-yl]isoindolin-2-yl]methyl]-6-methyl-morpholin-4-yl]quinoline-8-carbonitrile]",48
5,"C[C@@H]1CN(c2ccc(C#N)c3ncccc23)C[C@H](CN2Cc3ccc(N4CCNCC4)cc3C(O)C2)O1 (stereo partly drawn) [Example 75, 5-[(2S,6R)-2-[(4-hydroxy-6-piperazin-1-yl-3,4-dihydro-1H-isoquinolin-2-yl)methyl]-6-methyl-morpholin-4-yl]quinoline-8-carbonitrile]",42
6,"C[C@@H]1CN(c2ccc(C#N)c3ncccc23)C[C@H](CN2Cc3ccc(N4CCNCC4C(F)F)cc3C2)O1 (stereo partly drawn) [Example 76, 5-[(2S,6R)-2-[[5-[2-(difluoromethyl)piperazin-1-yl]isoindolin-2-yl]methyl]-6-methyl-morpholin-4-yl]quinoline-8-carbonitrile]",9
7,"C[C@@H]1CN(c2ccc(C#N)c3ncccc23)C[C@H](CN2Cc3ccc(N4CCNCC4)nc3C2)O1 [Example 80, 5-[(2R,6S)-2-methyl-6-[(2-piperazin-1-yl-5,7-dihydropyrrolo[3,4-b]pyridin-6-yl)methyl]morpholin-4-yl]quinoline-8-carbonitrile]",7
8,"C[C@@H]1CN(c2ccc(C#N)c3nccnc23)C[C@H](CNCc2ccc(N3CCNCC3)cc2)O1 [Example 84, 8-[(2R,6S)-2-methyl-6-[[(4-piperazin-1-ylphenyl)methylamino]methyl]morpholin-4-yl]quinoxaline-5-carbonitrile]",12
9,"C[C@@H]1CN(c2ccc(C#N)c3ncccc23)C[C@H](CNCc2ccc(N3CCNCC3)cc2)O1 [Example 86, 5-[(2R,6S)-2-methyl-6-[[(4-piperazin-1-ylphenyl)methylamino]methyl]morpholin-4-yl] quinoline-8-carbonitrile]",15
10,"C[C@@H]1CN(c2ccc(C#N)n3nccc23)C[C@H](CN2Cc3ccncc3C2)O1 [Example R2, 4-[(2S,6R)-2-(1,3-dihydropyrrolo[3,4-c]pyridin-2-ylmethy1)-6-methyl-morpholin-4-yl]pyrazolo[1,5-a]pyridine-7-carbonitrile, reference compound]",722

# Further compounds by falling IC50, results first:
row,IC50 [nM],SMILES
1,550,"C[C@@H]1CN(c2ccc(C#N)n3nccc23)C[C@H](CN2CCc3cnccc3C2)O1 [Example R1, 4-[(2S,6R)-2-(3,4-dihydro-1H-2,6-naphthyridin-2-ylmethyl)-6-methyl-morpholin-4-yl]pyrazolo[1,5-a]pyridine-7-carbonitrile, reference compound]"
2,59,"C[C@@H]1CN(c2ccc(C#N)c3ncccc23)C[C@H](CN2Cc3ccc(CN4CCCCC4)cc3C2)O1 [Example 74, 5-[(2R,6S)-2-methyl-6-[[5-(1-piperidylmethyl)isoindolin-2-yl]methyl]morpholin-4-yl]quinoline-8-carbonitrile]"
3,56,"COC(=O)C1CN(c2ccc3c(c2)CN(C[C@H]2CN(c4ccc(C#N)c5ncccc45)C[C@@H](C)O2)C3)CCN1 (stereo partly drawn) [Example 67, Methyl 4-[2-[[(2S,6R)-4-(8-cyano-5-quinolyl)-6-methyl-morpholin-2-yl]methyl]isoindolin-5-yl] piperazine-2-carboxylate]"
4,47,"C[C@@H]1CN(c2ccc(C#N)c3ncccc23)C[C@H](CN2Cc3ccc(N4CCNC[C@@H]4CO)cc3C2)O1 [Example 82, 5-[(2S,6R)-2-[[5-[(2R)-2-(hydroxymethyl)piperazin-1-yl]isoindolin-2-yl]methyl]-6-methyl-morpholin-4-yl]quinoline-8-carbonitrile]"
5,34,"C[C@@H]1CN(c2ccc(C#N)c3ncccc23)C[C@H](CN2Cc3ccc(N4CCNC[C@H]4CO)cc3C2)O1 [Example 83, 5-[(2S,6R)-2-[[5-[(2S)-2-(hydroxymethyl)piperazin-1-yl]isoindolin-2-yl]methyl]-6-methyl-morpholin-4-yl]quinoline-8-carbonitrile]"
6,32,"C[C@@H]1CN(c2ccc(C#N)c3ncccc23)C[C@H](CN2Cc3ccc(N4CC(N)C4)cc3C2)O1 [Example 77, 5-[(2S,6R)-2-[[5-(3-aminoazetidin-1-yl)isoindolin-2-yl]methyl]-6-methyl-morpholin-4-yl]quinoline-8-carbonitrile]"
7,15,"C[C@@H]1CN(c2ccc(C#N)c3ncccc23)C[C@H](CN2CCc3nc(N4CCNCC4)ccc3C2)O1 [Example 79, 5-[(2R,6S)-2-methyl-6-[(2-piperazin-1-yl-7,8-dihydro-5H-1,6-naphthyridin-6-yl)methyl]morpholin-4-yl]quinoline-8-carbonitrile]"
8,14,"C[C@@H]1CN(c2ccc(C#N)c3ncccc23)C[C@H](CN2CCc3cc(N4CCNCC4)ncc3C2)O1 [Example 70, 5-[(2R,6S)-2-methyl-6-[(6-piperazin-1-yl-3,4-dihydro-1H-2,7-naphthyridin-2-yl)methyl]morpholin-4-yl]quinoline-8-carbonitrile]"
9,11,"CC1CNCCN1c1ccc2c(c1)CN(C[C@H]1CN(c3ccc(C#N)c4ncccc34)C[C@@H](C)O1)C2 (stereo partly drawn) [Example 78, 5-[(2R,6S)-2-methyl-6-[[5-(2-methylpiperazin-1-yl)isoindolin-2-yl]methyl]morpholin-4-yl] quinoline-8-carbonitrile]"
10,8,"C[C@@H]1CN(c2ccc3c(c2)CN(C[C@H]2CN(c4ccc(C#N)c5nccnc45)C[C@@H](C)O2)C3)CCN1 [Example 65, 8-[(2R,6S)-2-methyl-6-[[5-[(3R)-3-methylpiperazin-1-yl]isoindolin-2-yl]methyl]morpholin-4-yl] quinoxaline-5-carbonitrile]"
11,6,"C[C@@H]1CN(c2ccc(C#N)c3nccnc23)C[C@H](CN2Cc3ccc(N4CCN[C@@H](C)C4)cc3C2)O1 [Example 66, 8-[(2R,6S)-2-methyl-6-[[5-[(3S)-3-methylpiperazin-1-yl]isoindolin-2-yl]methyl]morpholin-4-yl]quinoxaline-5-carbonitrile]"
